{"source": "patent US10953011B2", "about": "“Methods of treating virally associated cancers with histone deacetylase inhibitors” (priority 2019, dated 2021)", "key": {"HDAC9": {"target": "HDAC9 (Homo sapiens, UniProt Q9UKV0)", "sequence (Q9UKV0 whole entry)": "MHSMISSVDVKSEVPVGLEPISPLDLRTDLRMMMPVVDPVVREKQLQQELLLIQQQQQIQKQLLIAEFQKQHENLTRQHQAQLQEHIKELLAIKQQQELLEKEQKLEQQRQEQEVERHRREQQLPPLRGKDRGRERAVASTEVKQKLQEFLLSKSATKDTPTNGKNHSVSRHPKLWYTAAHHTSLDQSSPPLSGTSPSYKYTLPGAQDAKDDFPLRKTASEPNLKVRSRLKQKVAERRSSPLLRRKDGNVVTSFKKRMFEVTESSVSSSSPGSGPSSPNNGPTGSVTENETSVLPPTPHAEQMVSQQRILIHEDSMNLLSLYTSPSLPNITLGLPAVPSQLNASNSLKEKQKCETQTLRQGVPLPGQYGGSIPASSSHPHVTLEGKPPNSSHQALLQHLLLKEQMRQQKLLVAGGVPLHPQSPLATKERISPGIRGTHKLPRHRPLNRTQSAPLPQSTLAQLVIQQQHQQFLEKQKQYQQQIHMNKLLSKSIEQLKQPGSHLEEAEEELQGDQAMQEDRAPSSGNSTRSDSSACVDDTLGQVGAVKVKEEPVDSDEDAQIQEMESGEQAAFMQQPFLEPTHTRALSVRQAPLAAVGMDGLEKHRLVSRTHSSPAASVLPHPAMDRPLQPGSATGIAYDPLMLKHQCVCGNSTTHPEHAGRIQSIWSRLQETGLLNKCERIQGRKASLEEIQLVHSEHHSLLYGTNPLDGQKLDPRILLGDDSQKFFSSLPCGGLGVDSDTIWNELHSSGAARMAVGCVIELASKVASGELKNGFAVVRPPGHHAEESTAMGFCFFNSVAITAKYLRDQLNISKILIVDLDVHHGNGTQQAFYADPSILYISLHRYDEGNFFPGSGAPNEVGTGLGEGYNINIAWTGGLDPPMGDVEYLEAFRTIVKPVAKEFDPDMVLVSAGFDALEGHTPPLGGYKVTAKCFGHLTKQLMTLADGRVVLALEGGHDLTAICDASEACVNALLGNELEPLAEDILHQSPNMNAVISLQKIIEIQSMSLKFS", "test": "in vitro HDAC inhibition assay (fluorescence)", "type": "biochemical", "conditions": "1 h pre-incubation; 2 μM HDAC Substrate Class 2a; read-out: IC50 (μM) HDAC9", "experimental": "(§1) Briefly, all of the compounds are dissolved in DMSO. A series of dilutions of the compounds were prepared with 10% DMSO in HDAC assay buffer and 5 μl of the dilution was added to a 50 μl reaction so that the final concentration of DMSO is 1% in all of reactions. The compounds were pre-incubated in duplicate at RT for 1 hour in a mixture containing HDAC assay buffer, 5 μg BSA, HDAC enzyme (see Table 7) and a the particular HDACi. After 1 hour, the enzymatic reactions were initiated by the addition of HDAC substrate (BPS Bioscience) to a final concentration of 10 μM or 2 μM. The enzymatic reaction proceeded for 30 minutes at 37° C.\n(§2) HDAC activity assays were performed in duplicates at each concentration. The fluorescent intensity data were analyzed using the computer software, Graphpad Prism. In the absence of the compound, the fluorescent intensity (Ft) in each data set was defined as 100% activity. In the absence of HDAC, the fluorescent intensity (Fb) in each data set was defined as 0% activity. The percent activity in the presence of each compound was calculated according to the following equation: % activity=(F−Fb)/(Ft−Fb), where F=the fluorescent intensity in the presence of the compound.\n(§3) The values of % activity versus a series of compound concentrations were then plotted using non-linear regression analysis of Sigmoidal dose-response curve generated with the equation Y=B+(T−B)/1+10^((Log EC50-X)×Hill Slope), where Y=percent activity, B=minimum percent activity, T=maximum percent activity, X=logarithm of compound and Hill Slope=slope factor or Hill coefficient. The IC50 value was determined by the concentration causing a half-maximal percent activity."}, "HDAC4": {"target": "HDAC4 (Homo sapiens, UniProt P56524)", "sequence (P56524 whole entry)": "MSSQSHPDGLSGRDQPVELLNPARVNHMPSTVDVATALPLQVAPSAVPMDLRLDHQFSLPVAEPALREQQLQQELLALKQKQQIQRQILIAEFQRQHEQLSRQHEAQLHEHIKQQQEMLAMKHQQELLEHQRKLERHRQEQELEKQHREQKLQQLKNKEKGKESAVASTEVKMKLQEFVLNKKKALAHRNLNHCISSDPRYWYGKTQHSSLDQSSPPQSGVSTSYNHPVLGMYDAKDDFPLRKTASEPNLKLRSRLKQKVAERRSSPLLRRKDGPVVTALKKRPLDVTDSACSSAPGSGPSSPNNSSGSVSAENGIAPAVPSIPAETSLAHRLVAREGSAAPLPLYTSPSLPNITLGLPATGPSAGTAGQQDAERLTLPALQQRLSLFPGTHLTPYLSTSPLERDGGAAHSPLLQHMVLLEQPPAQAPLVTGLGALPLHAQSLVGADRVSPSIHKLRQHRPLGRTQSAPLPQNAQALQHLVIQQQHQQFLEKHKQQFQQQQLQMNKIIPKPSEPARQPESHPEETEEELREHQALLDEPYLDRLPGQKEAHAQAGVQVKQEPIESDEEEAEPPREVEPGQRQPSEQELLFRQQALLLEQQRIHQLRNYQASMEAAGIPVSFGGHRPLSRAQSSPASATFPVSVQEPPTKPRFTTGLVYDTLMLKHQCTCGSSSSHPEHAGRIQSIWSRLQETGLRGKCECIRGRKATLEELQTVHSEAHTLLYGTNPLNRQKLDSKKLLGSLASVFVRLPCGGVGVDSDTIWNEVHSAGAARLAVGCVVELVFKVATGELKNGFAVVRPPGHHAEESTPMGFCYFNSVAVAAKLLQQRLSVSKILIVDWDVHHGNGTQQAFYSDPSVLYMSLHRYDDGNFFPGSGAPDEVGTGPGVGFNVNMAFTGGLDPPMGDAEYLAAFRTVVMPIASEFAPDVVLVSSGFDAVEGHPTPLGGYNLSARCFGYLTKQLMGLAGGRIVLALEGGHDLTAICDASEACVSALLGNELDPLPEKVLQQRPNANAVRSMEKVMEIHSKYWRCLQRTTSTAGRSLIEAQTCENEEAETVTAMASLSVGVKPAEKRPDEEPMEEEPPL", "test": "in vitro HDAC inhibition assay (fluorescence)", "type": "biochemical", "conditions": "1 h pre-incubation; 2 μM HDAC Substrate Class 2a; read-out: IC50 (μM) HDAC4", "experimental": "as §1, §2, §3"}, "HDAC 6": {"target": "T1, HDAC 6 (Homo sapiens, UniProt Q9UBN7)", "T1 sequence (Q9UBN7 1-1215)": "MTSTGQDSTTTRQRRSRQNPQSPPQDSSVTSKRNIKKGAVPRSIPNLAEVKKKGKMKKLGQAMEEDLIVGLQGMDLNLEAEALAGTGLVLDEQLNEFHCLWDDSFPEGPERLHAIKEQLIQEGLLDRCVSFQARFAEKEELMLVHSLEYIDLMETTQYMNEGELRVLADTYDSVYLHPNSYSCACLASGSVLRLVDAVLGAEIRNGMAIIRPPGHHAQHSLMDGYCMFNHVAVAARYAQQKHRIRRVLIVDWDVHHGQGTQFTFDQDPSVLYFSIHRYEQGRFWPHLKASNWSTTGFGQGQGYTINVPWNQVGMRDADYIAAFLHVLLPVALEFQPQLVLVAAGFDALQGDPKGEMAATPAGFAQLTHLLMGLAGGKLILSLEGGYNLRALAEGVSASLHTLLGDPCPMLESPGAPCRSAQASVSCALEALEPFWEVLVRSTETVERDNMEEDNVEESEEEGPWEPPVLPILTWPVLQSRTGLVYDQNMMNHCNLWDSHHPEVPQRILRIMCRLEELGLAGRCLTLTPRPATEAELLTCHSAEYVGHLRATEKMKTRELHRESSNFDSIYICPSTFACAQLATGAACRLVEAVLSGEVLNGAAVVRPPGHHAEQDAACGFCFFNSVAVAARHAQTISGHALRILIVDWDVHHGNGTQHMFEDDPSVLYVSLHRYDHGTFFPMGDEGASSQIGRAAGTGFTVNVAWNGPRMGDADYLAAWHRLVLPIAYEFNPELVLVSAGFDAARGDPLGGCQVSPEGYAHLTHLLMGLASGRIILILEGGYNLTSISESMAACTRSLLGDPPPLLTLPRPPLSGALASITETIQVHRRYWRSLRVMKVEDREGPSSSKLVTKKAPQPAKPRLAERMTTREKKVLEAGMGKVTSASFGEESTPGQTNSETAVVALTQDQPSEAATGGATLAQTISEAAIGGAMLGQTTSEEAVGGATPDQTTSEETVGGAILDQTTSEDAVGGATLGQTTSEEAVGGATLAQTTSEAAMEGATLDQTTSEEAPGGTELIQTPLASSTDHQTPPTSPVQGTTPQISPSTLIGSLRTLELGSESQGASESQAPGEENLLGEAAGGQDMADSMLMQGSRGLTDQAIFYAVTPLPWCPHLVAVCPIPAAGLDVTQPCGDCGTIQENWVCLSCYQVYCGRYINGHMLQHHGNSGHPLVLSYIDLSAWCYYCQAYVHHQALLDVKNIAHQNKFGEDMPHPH", "conditions": "descriptive statement; cited from earlier work"}, "HDAC8": {"target": "T2, HDAC8 (Homo sapiens, UniProt Q9BY41)", "T2 sequence (Q9BY41 1-377)": "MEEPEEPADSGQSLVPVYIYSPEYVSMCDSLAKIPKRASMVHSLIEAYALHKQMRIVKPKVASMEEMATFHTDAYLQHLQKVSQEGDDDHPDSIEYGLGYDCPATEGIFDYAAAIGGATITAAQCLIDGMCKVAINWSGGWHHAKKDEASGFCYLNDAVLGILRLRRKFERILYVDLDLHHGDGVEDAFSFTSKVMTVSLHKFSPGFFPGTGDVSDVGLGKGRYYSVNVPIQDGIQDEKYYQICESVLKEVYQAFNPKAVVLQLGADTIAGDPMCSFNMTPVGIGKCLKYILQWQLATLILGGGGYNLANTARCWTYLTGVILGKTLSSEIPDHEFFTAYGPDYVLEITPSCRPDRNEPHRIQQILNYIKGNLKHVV", "test": "biochemical", "experimental": "as §1\nas §2, with “compound. […]” for “compound.”"}, "[1]": {"test_system": "P3HR1 Burkitt's lymphoma cells", "test": "Cell death (7AAD) after Nstat, washout, then ganciclovir", "experimental": "P3HR1 Burkitt's lymphoma cells were incubated with DMSO (solvent control) or Nstat for 3 days. After that time cell cultures were washed re-fed with ganciclovir (GCV) for an additional 3 days. All test conditions were run in triplicate. Cell death was measured by 7AAD staining."}, "[2]": {"test_system": "Histone 3 acetylation in peripheral blood mononuclear cells", "test": "H3 acetylation in PBMC by flow cytometry", "type": "cell-based, human", "description": "Percentage of cells with H3 acetylation, as determined by flow cytometry, is shown.\nSince H3 acetylation is a pharmacodynamic biomarker of Nstat activity, acetylation of H3 was examined in treated cells."}}, "note": "pIC50: −log10 of the molar value.", "data": [{"smiles": "O=C(NO)c1cnc(N2C[C@@H]3[C@H](C2)[C@H]3NCc2ccc3cc(F)ccc3n2)nc1", "note": "[Nanatinostat, 2-((1R,5S,6s)-6-(((6-fluoroquinolin-2-yl)methyl)amino)-3-azabicyclo[3.1.0]hexan-3-yl)-N-hydroxypyrimidine-5-carboxamide]", "values": [{"measurement": "IC50", "setting": "HDAC9", "value": 0.44, "unit": "µM"}, {"measurement": "IC50", "setting": "HDAC4", "value": 1, "unit": "µM"}, {"measurement": "Activity against HDAC 6", "setting": "HDAC 6", "value": "not HDAC 6"}, {"measurement": "pIC50", "setting": "HDAC8", "value": 6.07}, {"measurement": "Increase of cytotoxic activity when combined with Ganciclovir", "setting": "[1]", "value": "~40", "unit": "%"}, {"measurement": "Cell cytotoxicity when combined with ganciclovir", "setting": "[1]; EBV infected cell line, seen even after Nstat removal", "value": "increases cell cytotoxicity"}, {"measurement": "Duration of effect on H3 acetylation", "setting": "[2]; PBMC of healthy donors, time-course, doses down to 10 nM, FIG. 3", "value": "long-lasting"}, {"measurement": "Potency in inducing elevated levels of Histone 3 acetylation", "setting": "[2]; PBMC of healthy volunteers, even at 100 nM, FIG. 2", "value": "much more potent than entinostat"}]}]}
